Assay results: ChEMBL document CHEMBL1141635, “Novel GSK-3beta inhibitors from sequential virtual screening” (Bioorg Med Chem, 2008)

Target: Glycogen synthase kinase-3 beta (Homo sapiens) (UniProt P49841)
Assay: Inhibition of human GSK3-beta assessed as remaining enzyme activity at 10 uM

Chain of Glycogen synthase kinase-3 beta (Homo sapiens) (P49841 whole entry, looked up): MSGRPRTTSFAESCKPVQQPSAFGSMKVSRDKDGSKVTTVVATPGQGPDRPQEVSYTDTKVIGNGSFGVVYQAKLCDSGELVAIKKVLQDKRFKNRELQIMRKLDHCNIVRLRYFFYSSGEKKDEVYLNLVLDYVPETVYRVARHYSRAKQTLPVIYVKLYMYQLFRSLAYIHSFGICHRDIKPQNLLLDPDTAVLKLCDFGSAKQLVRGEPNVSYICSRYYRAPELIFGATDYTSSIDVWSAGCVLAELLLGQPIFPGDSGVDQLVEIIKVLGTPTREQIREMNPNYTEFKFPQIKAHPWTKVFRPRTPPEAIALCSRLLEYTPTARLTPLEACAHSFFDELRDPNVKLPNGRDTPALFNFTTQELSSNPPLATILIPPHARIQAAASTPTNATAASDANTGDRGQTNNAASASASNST

Row | Activity [%] | SMILES
1 | 41 | Cc1cc(/C=C2\SC(=S)NC2=O)c(C)n1-c1cccc([N+](=O)[O-])c1
2 | 18 | Cc1ccc(/N=C2/NC(=O)S/C2=C\c2ccccc2Cl)cc1
3 | 5 | COc1ccc(-c2ccc(/C=C3\SC(=S)NC3=O)o2)c([N+](=O)[O-])c1
4 | 14 | O=C1NC(=S)S/C1=C\c1ccccc1OS(=O)(=O)c1ccccc1[N+](=O)[O-]
5 | 41 | O=C1CC(C(F)(F)F)=NC(Sc2c(-c3ccccc3)c3cc([N+](=O)[O-])ccc3[nH]c2=O)=N1
6 | 95 | CCCNc1nc2ccccn2c(=O)c1/C=C1\SC(=S)NC1=O
7 | 84 | COc1ccc2c(c1)/C(=C1/SC(=S)NC1=O)C(=O)N2
8 | 99 | CC1=NCCNC2=C1[C@H](c1ccc(F)cc1)N(c1ccccn1)C2=O
9 | 8 | O=C1NC(=O)/C(=C/c2ccc(-c3cc([N+](=O)[O-])ccc3Cl)o2)S1
10 | 7 | O=C1NC(=S)S/C1=C\c1ccc(O)c([N+](=O)[O-])c1
11 | 6 | COc1cc(/C=C2\SC(=S)NC2=O)cc(Br)c1OCc1ccccc1C
12 | 58 | CCOc1cc(C=C2C(=O)NC(=S)NC2=O)cc(I)c1OC
13 | 67 | Cc1ccc(S(=O)(=O)n2cc(/C=C3\SC(=S)NC3=O)c3ccccc32)cc1
